In patent publication US20260285853A1, “COMPOUNDS AND METHODS FOR MODULATING SPLICING” (REMIX THERAPEUTICS INC., priority 2023, published 2026):
Structures can show the parent of a compound that is named as a salt.

Assays:
Assay type in all cases: cell-based
HTT mRNA [1] = assay: Splicing RT-qPCR assay (THP), Table 2A; details: Table 2A (THP); for AC50: AJ mRNA increase, read-out: HTT AJ (increase in alternative junction mRNA, AC50); for IC50: CJ mRNA decrease, read-out: HTT CJ (decrease in canonical junction mRNA, IC50)
MYB mRNA [2] = assay: Splicing RT-qPCR assay (THP), Table 2A; details: Table 2A (THP); for AC50: AJ mRNA increase, read-out: MYB AJ (increase in alternative junction mRNA, AC50); for IC50: CJ mRNA decrease, read-out: MYB CJ (decrease in canonical junction mRNA, IC50)
[3] = test system: SH-SY5Y (human neuroblastoma) cells; assay: Cell viability, Cell Titer Glo 2.0 assay; details: read-out: Viability SHSY5Y.3 GI50
Summary of the method: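 Toxicity screen in SH-SY5Y cells. Compounds were serially diluted in DMSO and then in medium, giving 0.1% DMSO final. Viability was read with CellTiter-Glo 2.0 after 72 h at 37 °C, 5% CO2, against medium-only blank wells.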

MYB mRNA [4] = assay: Gene panel canonical junction qPCR assay, decrease in CJ mRNA, Table 3; details: decrease in canonical junction (CJ) mRNA, gene panel qPCR, Table 3
Summary of the method: (§1)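 A673 (DMEM, 10% FBS, 15,000 cells/well) or K562 (IMDM, 10% FBS) cells treated 24 h at 37 °C with 11-point 3-fold dilutions, top 10 uM, DMSO ≤0.25%. Canonical exon-exon junction mRNA measured by RT-qPCR, normalized to GAPDH, GUSB or PPIA and DMSO (ΔΔCt); IC50 from 4-parameter logistic fit.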

HTT mRNA [5] = assay: as above; details: decrease in canonical junction (CJ) mRNA, gene panel qPCR, Table 3
Summary of the method: as §1

Structure (SMILES) | AC50 (HTT mRNA [1]) [nM] | IC50 (HTT mRNA [1]) [nM] | AC50 (MYB mRNA [2]) [nM] | IC50 (MYB mRNA [2]) [nM] | GI50 [3] [nM] | IC50 (MYB mRNA [4]) [nM] | IC50 (HTT mRNA [5]) [nM]
CCNC1CCN(c2ccc(C(=O)Nc3cc(-n4ccc(=O)cc4)c4nc(C)cn4c3)c3nn(C)cc23)CC1 [Compound 360, 4-(4-(ethylamino)piperidin-1-yl)-2-methyl-N-(2-methyl-8-(4-oxopyridin-1-(4H)-yl)imidazo[1,2-a]-pyridin-6-yl)-2H-indazole-7-carboxamide] | 1000 to 10000 | 1000 to 10000 | 1000 to 10000 | 1000 to 10000 | 1000 to 10000 | 1000 to 10000 | 1000 to 10000
Cc1cn2cc(NC(=O)c3ncc(N4CCC(NC5CC5)CC4)c4cn(C)nc34)cc(F)c2n1 [Compound 361, 4-[4-(cyclopropylamino)-1-piperidyl]-N-(8-fluoro-2-methyl-imidazo[1,2-a]pyridin-6-yl)-2-methyl-pyrazolo[3,4-c]pyridine-7-carboxamide] | 1000 to 10000 | > 10000 | 100 to 1000 | 100 to 1000 | 1000 to 10000 | 100 to 1000 | > 10000
CCNC1CCN(c2cc(F)c(C(=O)Nc3cn4cc(C)nc(CC)c4n3)c3nn(C)cc23)CC1 [Compound 362, 4-[4-(ethylamino)-1-piperidyl]-N-(8-ethyl-6-methyl-imidazo[1,2-a]pyrazin-2-yl)-6-fluoro-2-methyl-indazole-7-carboxamide] | > 10000 | > 10000 | < 100 | 100 to 1000 | 1000 to 10000 | 100 to 1000 | > 10000
CCNC1CCN(c2ccc(C(=O)Nc3ccn(-c4ccncn4)n3)c3nn(C)cc23)CC1 [Compound 363, 4-(4-(ethylamino)-piperidin-1-yl)-2-methyl-N-(1-(pyrimidin-4-yl)-1H-pyrazol-3-yl)-2H-indazole-7-carboxamide 2,2,2-trifluoroacetate] | > 10000 | > 10000 | > 10000 | > 10000 | > 10000 | > 10000 | > 10000
CCNC1CCN(c2cc(F)c(C(=O)Nc3cn4cc(C)nc4c(N)c3OC)c3nn(C)cc23)CC1 [Compound 364, N-(8-amino-7-methoxy-2-methyl-imidazo[1,2-a]-pyridin-6-yl)-4-[4-(ethylamino)-1-piperidyl]-6-fluoro-2-methyl-indazole-7-carboxamide] | 100 to 1000 | 1000 to 10000 | < 100 | 100 to 1000 | 1000 to 10000 | < 100 | 1000 to 10000
CCNC1CCN(c2ccc(C(=O)Nc3cc(Oc4ccccn4)c4nc(C)cn4c3)c3nn(C)cc23)CC1 [Compound 365, 4-[4-(ethylamino)-1-piperidyl]-2-methyl-N-[2-methyl-8-(2-pyridyloxy)-imidazo[1,2-a]pyridin-6-yl]indazole-7-carboxamide] | > 10000 | > 10000 | 1000 to 10000 | 1000 to 10000 | > 10000 | 1000 to 10000 | > 10000
CCNC1CCN(c2ccc(C(=O)Nc3cc(-n4ccccc4=O)c4nc(C)cn4c3)c3nn(C)cc23)CC1 [Compound 366, 4-[4-(ethylamino)-1-piperidyl]-2-methyl-N-[2-methyl-8-(2-oxo-1-pyridyl)imidazo[1,2-a]pyridin-6-yl]indazole-7-carboxamide] | > 10000 | > 10000 | > 10000 | > 10000 | > 10000 | > 10000 | > 10000
COc1c(NC(=O)c2c(F)cc(N3CC[C@H](NC4CC4)C4(CC4)C3)c3cn(C)nc23)cn2cc(C)nc2c1F [Compound 367, 4-[(8S)-8-(cyclopropylamino)-5-azaspiro[2.5]octan-5-yl]-6-fluoro-N-(8-fluoro-7-methoxy-2-methyl-imidazo[1,2-a]pyridin-6-yl)-2-methyl-indazole-7-carboxamide] | 1000 to 10000 | 1000 to 10000 | < 100 | < 100 | 100 to 1000 | < 100 | 1000 to 10000
COc1c(NC(=O)c2c(F)cc(N3CC[C@@H](NC4CC4)C4(CC4)C3)c3cn(C)nc23)cn2cc(C)nc2c1F [Compound 368, 4-[(8R)-8-(cyclopropylamino)-5-azaspiro[2.5]octan-5-yl]-6-fluoro-N-(8-fluoro-7-methoxy-2-methyl-imidazo[1,2-a]pyridin-6-yl)-2-methyl-indazole-7-carboxamide] | 1000 to 10000 | 1000 to 10000 | < 100 | < 100 | 100 to 1000 | < 100 | 1000 to 10000
COc1c(NC(=O)c2c(F)cc(N3CCC(NC4CC4)C4(CC4)C3)c3cn(C)nc23)cn2cc(C)nc2c1F (stereo not drawn) [Compound 369, 4-[8-(cyclopropylamino)-5-azaspiro [2.5]octan-5-yl]-6-fluoro-N-(8-fluoro-7-methoxy-2-methyl-imidazo[1,2-a]-pyridin-6-yl)-2-methyl-indazole-7-carbox-amide] | 100 to 1000 | 1000 to 10000 | < 100 | < 100 | 100 to 1000 | < 100 | 1000 to 10000
Cc1cn2cc(NC(=O)c3ccc(N4CCC(N[C@@H]5C[C@H]5O)CC4)c4cn(C)nc34)cc(F)c2n1 [Compound 370, N-(8-fluoro-2-methylimidazo[1,2-a]pyridin-6-yl)-4-(4-(((1R,2R)-2-hydroxycyclopropyl)amino)piperidin-1-yl)-2-methyl-2H-indazole-7-carboxamide hydrochloride] | 1000 to 10000 | 1000 to 10000 | < 100 | 100 to 1000 | 1000 to 10000 | 100 to 1000 | 1000 to 10000
Cc1cn2cc(NC(=O)c3ccc(N4CCC(N[C@@H]5C[C@@H]5O)CC4)c4cn(C)nc34)cc(F)c2n1 [Compound 371, N-(8-fluoro-2-methyl-imidazo-[1,2-a]pyridin-6-yl)-4-(4-(((1R,2S)-2-hydroxy-cyclopropyl)-amino)piperidin-1-yl)-2-methyl-2H-indazole-7-carboxamide hydrochloride] | 1000 to 10000 | 1000 to 10000 | < 100 | 100 to 1000 | 1000 to 10000 | 100 to 1000 | 1000 to 10000
CCNC1(C)CCN(c2cc(F)c(C(=O)Nc3cn4cc(C)nc(C)c4n3)c3nn(C)cc23)CC1 [Compound 375, N-(6,8-dimethylimidazo[1,2-a]pyrazin-2-yl)-4-[4-(ethylamino)-4-methyl-1-piperidyl]-6-fluoro-2-methyl-indazole-7-carboxamide] | 1000 to 10000 | 1000 to 10000 | < 100 | < 100 | 100 to 1000 | < 100 | 1000 to 10000
C#CCCC1(CCN2CCN(c3ccc(C(=O)Nc4cc(F)c5nc(C)cn5c4)c4nn(C)cc34)CC2)N=N1 [Compound 376, 4-(4-(2-(3-(but-3-yn-1-yl)-3H-diazirin-3-yl)ethyl)piperazin-1-yl)-N-(8-fluoro-2-methyl-imidazo-[1,2-a]pyridin-6-yl)-2-methyl-2H-indazole-7-carboxamide bis(2,2,2-trifluoroacetate)] | > 10000 | 1000 to 10000 | 100 to 1000 | 100 to 1000 | 1000 to 10000 | 100 to 1000 | 1000 to 10000
Cc1cn2cc(NC(=O)c3c(F)cc(N4CCC(NC5CC5)CC4)c4cn(C)nc34)c(Oc3ccccc3)c(F)c2n1 [Compound 377, 4-[4-(cyclopropylamino)-1-piperidyl]-6-fluoro-N-(8-fluoro-2-methyl-7-phenoxyimidazo [1,2-a]pyridin-6-yl)-2-methyl-indazole-7-carboxamide] | < 100 | < 100 | < 100 | < 100 | < 100 | < 100 | < 100
Cc1cn2cc(NC(=O)c3ccc(N4CCC(NC5(CF)CC5)CC4)c4cn(C)nc34)cc(F)c2n1 [Compound 378, 4-[4-[[1-(fluoromethyl)cyclopropyl]amino]-1-piperidyl]-N-(8-fluoro-2-methyl-imidazo[1,2-a]pyridin-6-yl)-2-methyl-indazole-7-carboxamide] | 1000 to 10000 | 1000 to 10000 | < 100 | < 100 | 100 to 1000 | < 100 | 1000 to 10000
CCNC1CCN(c2cc(F)c(C(=O)Nc3cn4cc(CO)nc(C)c4n3)c3nn(C)cc23)CC1 [Compound 379, 4-[4-(ethylamino)-1-piperidyl]-6-fluoro-N-[6-(hydroxymethyl)-8-methyl-imidazo[1,2-a]pyrazin-2-yl]-2-methyl-indazole-7-carboxamide] | > 10000 | > 10000 | 1000 to 10000 | 1000 to 10000 | > 10000 | 1000 to 10000 | > 10000
CCNC1CCN(c2cc(F)c(C(=O)Nc3nc4c(C)nc(C)cc4o3)c3nn(C)cc23)CC1 [Compound 380, N-(4,6-dimethyl-oxazolo-[4,5-c]-pyridin-2-y1)-4-[4-(ethylamino)-1-piperidy1]-6-fluoro-2-methyl-indazole-7-carboxamide] | > 10000 | > 10000 | 1000 to 10000 | 1000 to 10000 | > 10000 | 1000 to 10000 | > 10000
